# In PubChem BioAssay (NCI):
# Values joined by “and” are separate entries in the source; they are usually repeats but may differ in a detail not shown here. Equal entries are not always repeated.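 Grown in 96-well plates, cells were treated for 48 hours with each compound at five concentrations. Insufficient inhibition: endpoint recorded as highest concentration tested. GI50 is the concentration that inhibits growth by half. The concentration for full growth arrest is given as TGI.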
# Experiments:
# Experiment in all cases: inhibition of tumour cell growth, NCI panel, 48 h
# 786-0 renal = system: 786-0 renal
# A498 renal = system: A498 renal
# A549 NSCLC = system: A549 NSCLC
# ACHN renal = system: ACHN renal
# BT-549 breast = system: BT-549 breast
# CAKI-1 renal = system: CAKI-1 renal
# CCRF-CEM leukemia = system: CCRF-CEM leukemia
# COLO 205 colon = system: COLO 205 colon
# DU-145 prostate = system: DU-145 prostate
# EKVX NSCLC = system: EKVX NSCLC
# HCC-2998 colon = system: HCC-2998 colon
# HCT-116 colon = system: HCT-116 colon
# HCT-15 colon = system: HCT-15 colon
# HL-60(TB) leukemia = system: HL-60(TB) leukemia
# HOP-62 NSCLC = system: HOP-62 NSCLC
# HOP-92 NSCLC = system: HOP-92 NSCLC
# HS 578T breast = system: HS 578T breast
# HT29 colon = system: HT29 colon
# IGROV1 ovarian = system: IGROV1 ovarian
# K-562 leukemia = system: K-562 leukemia
# KM12 colon = system: KM12 colon
# LOX IMVI melanoma = system: LOX IMVI melanoma
# M14 melanoma = system: M14 melanoma
# MALME-3M melanoma = system: MALME-3M melanoma
# MCF7 breast = system: MCF7 breast
# MDA-MB-231 breast = system: MDA-MB-231 breast
# MDA-MB-435 = system: MDA-MB-435
# MDA-MB-468 breast = system: MDA-MB-468 breast
# MOLT-4 leukemia = system: MOLT-4 leukemia
# NCI-H226 lung = system: NCI-H226 lung
# NCI-H23 lung = system: NCI-H23 lung
# NCI-H460 lung = system: NCI-H460 lung
# NCI-H522 lung = system: NCI-H522 lung
# NCI/ADR-RES ovarian = system: NCI/ADR-RES ovarian
# OVCAR-3 ovarian = system: OVCAR-3 ovarian
# OVCAR-4 ovarian = system: OVCAR-4 ovarian
# OVCAR-5 ovarian = system: OVCAR-5 ovarian
# OVCAR-8 ovarian = system: OVCAR-8 ovarian
# PC-3 prostate = system: PC-3 prostate
# RPMI-8226 leukemia = system: RPMI-8226 leukemia
# SF-268 CNS = system: SF-268 CNS
# SF-295 CNS = system: SF-295 CNS
# SF-539 CNS = system: SF-539 CNS
# SK-MEL-2 melanoma = system: SK-MEL-2 melanoma
# SK-MEL-28 melanoma = system: SK-MEL-28 melanoma
# SK-MEL-5 melanoma = system: SK-MEL-5 melanoma
# SK-OV-3 ovarian = system: SK-OV-3 ovarian
# SN12C renal = system: SN12C renal
# SNB-19 CNS = system: SNB-19 CNS
# SNB-75 CNS = system: SNB-75 CNS
# SR leukemia = system: SR leukemia
# SW-620 colon = system: SW-620 colon
# T-47D breast = system: T-47D breast
# TK-10 renal = system: TK-10 renal
# U251 CNS = system: U251 CNS
# UACC-257 melanoma = system: UACC-257 melanoma
# UACC-62 melanoma = system: UACC-62 melanoma
# UO-31 renal = system: UO-31 renal
compound,measurement,setting,value
COc1ccc(C(=O)/C=C/c2ccc(OCc3ccccc3)c(OC)c2)cc1OC,GI50,786-0 renal,25.4 µM
same,TGI,786-0 renal,> 100 µM
same,GI50,A498 renal,20.3 µM
same,TGI,A498 renal,94.2 µM
same,GI50,A549 NSCLC,10.4 µM
same,TGI,A549 NSCLC,> 100 µM
same,GI50,ACHN renal,15.3 µM
same,TGI,ACHN renal,> 100 µM
same,GI50,BT-549 breast,5.08 µM
same,TGI,BT-549 breast,55.7 µM
same,GI50,CAKI-1 renal,16.7 µM
same,TGI,CAKI-1 renal,> 100 µM
same,GI50,CCRF-CEM leukemia,4.01 µM
same,TGI,CCRF-CEM leukemia,> 100 µM
same,GI50,COLO 205 colon,15.7 µM
same,TGI,COLO 205 colon,> 100 µM
same,GI50,DU-145 prostate,5.78 µM
same,TGI,DU-145 prostate,> 100 µM
same,GI50,EKVX NSCLC,11.4 µM
same,TGI,EKVX NSCLC,> 100 µM
same,GI50,HCC-2998 colon,7.06 µM
same,TGI,HCC-2998 colon,30 µM
same,GI50,HCT-116 colon,3.56 µM
same,TGI,HCT-116 colon,> 100 µM
same,GI50,HCT-15 colon,3.45 µM
same,TGI,HCT-15 colon,47.6 µM
same,GI50,HL-60(TB) leukemia,13.4 µM
same,TGI,HL-60(TB) leukemia,61.2 µM
same,GI50,HOP-62 NSCLC,4.95 µM
same,TGI,HOP-62 NSCLC,> 100 µM
same,GI50,HOP-92 NSCLC,6.03 µM
same,TGI,HOP-92 NSCLC,> 100 µM
same,GI50,HS 578T breast,18.4 µM
same,TGI,HS 578T breast,> 100 µM
same,GI50,HT29 colon,3.52 µM
same,TGI,HT29 colon,> 100 µM
same,GI50,IGROV1 ovarian,6.33 µM
same,TGI,IGROV1 ovarian,> 100 µM
same,GI50,K-562 leukemia,3.06 µM
same,TGI,K-562 leukemia,> 100 µM
same,GI50,KM12 colon,5.19 µM
same,TGI,KM12 colon,> 100 µM
same,GI50,LOX IMVI melanoma,4.11 µM
same,TGI,LOX IMVI melanoma,37.1 µM
same,GI50,M14 melanoma,27.4 µM
same,TGI,M14 melanoma,> 100 µM
same,GI50,MALME-3M melanoma,41.1 µM
same,TGI,MALME-3M melanoma,> 100 µM
same,GI50,MCF7 breast,3.44 µM
same,TGI,MCF7 breast,> 100 µM
same,GI50,MDA-MB-231 breast,8.48 µM
same,TGI,MDA-MB-231 breast,78.9 µM
same,GI50,MDA-MB-435,12 µM
same,TGI,MDA-MB-435,59.6 µM
same,GI50,MDA-MB-468 breast,2.15 µM and 3.99 µM
same,TGI,MDA-MB-468 breast,7.35 µM and 32.2 µM
same,GI50,MOLT-4 leukemia,4.47 µM
same,TGI,MOLT-4 leukemia,> 100 µM
same,GI50,NCI-H226 lung,5.34 µM
same,TGI,NCI-H226 lung,87.3 µM
same,GI50,NCI-H23 lung,6.95 µM
same,TGI,NCI-H23 lung,43 µM
same,GI50,NCI-H460 lung,4.6 µM
same,TGI,NCI-H460 lung,38.3 µM
same,GI50,NCI-H522 lung,4.86 µM
same,TGI,NCI-H522 lung,36.3 µM
same,GI50,NCI/ADR-RES ovarian,5.08 µM
same,TGI,NCI/ADR-RES ovarian,39.3 µM
same,GI50,OVCAR-3 ovarian,4.48 µM
same,TGI,OVCAR-3 ovarian,> 100 µM
same,GI50,OVCAR-4 ovarian,4.28 µM
same,TGI,OVCAR-4 ovarian,> 100 µM
same,GI50,OVCAR-5 ovarian,12.5 µM
same,TGI,OVCAR-5 ovarian,92.2 µM
same,GI50,OVCAR-8 ovarian,3.6 µM
same,TGI,OVCAR-8 ovarian,> 100 µM
same,GI50,PC-3 prostate,7.05 µM
same,TGI,PC-3 prostate,> 100 µM
same,GI50,RPMI-8226 leukemia,3.02 µM
same,TGI,RPMI-8226 leukemia,> 100 µM
same,GI50,SF-268 CNS,10.8 µM
same,TGI,SF-268 CNS,> 100 µM
same,GI50,SF-295 CNS,9.59 µM
same,TGI,SF-295 CNS,> 100 µM
same,GI50,SF-539 CNS,3.38 µM
same,TGI,SF-539 CNS,13.1 µM
same,GI50,SK-MEL-2 melanoma,17.4 µM
same,TGI,SK-MEL-2 melanoma,60.5 µM
same,GI50,SK-MEL-28 melanoma,34 µM
same,TGI,SK-MEL-28 melanoma,> 100 µM
same,GI50,SK-MEL-5 melanoma,17.4 µM
same,TGI,SK-MEL-5 melanoma,43.1 µM
same,GI50,SK-OV-3 ovarian,40.5 µM
same,TGI,SK-OV-3 ovarian,> 100 µM
same,GI50,SN12C renal,4.48 µM
same,TGI,SN12C renal,45.7 µM
same,GI50,SNB-19 CNS,8.3 µM
same,TGI,SNB-19 CNS,> 100 µM
same,GI50,SNB-75 CNS,18.7 µM
same,TGI,SNB-75 CNS,77.2 µM
same,GI50,SR leukemia,2.8 µM
same,TGI,SR leukemia,> 100 µM
same,GI50,SW-620 colon,3.64 µM
same,TGI,SW-620 colon,> 100 µM
same,GI50,T-47D breast,5.46 µM
same,TGI,T-47D breast,> 100 µM
same,GI50,TK-10 renal,21.4 µM
same,TGI,TK-10 renal,> 100 µM
same,GI50,U251 CNS,3.16 µM
same,TGI,U251 CNS,> 100 µM
same,GI50,UACC-257 melanoma,29.3 µM
same,TGI,UACC-257 melanoma,> 100 µM
same,GI50,UACC-62 melanoma,6.42 µM
same,TGI,UACC-62 melanoma,> 100 µM
same,GI50,UO-31 renal,5.38 µM
same,TGI,UO-31 renal,> 100 µM
